Assay results reported in patent publication US4933456A, “Dipyridoxyl phosphate NMRI contrast agents” (Salutar, Inc., priority 1987, dated 1990).
Read-outs that look alike come from different tables or passages of the source.

Assays:
[1] = 10 MHz, 37° C
Experimental: The relations of protons present in water and plasma exposed to the chelate product of Example 7 was tested by NMR for relaxities, in msec, at 10 MHz, 37° C.

selected body organs = conditions: 30 min
Experimental: Each of four rabbits was injected intravenously with one of the following amounts of the solution obtained in Example 7: 0.01 mmoles/kg, 0.05 mmoles/kg, 0.10 mmoles/kg and 0.20 mmoles/kg. The rabbits were sacrificed 30 min post injection, and the proton relaxation values of selected body organs were measured with NMR, in vitro at 10 MHz.

[2] = Experimental: The compound DPDP was studied potentiometrically from pH 11.2 to 2.0. Data sets were collected on a custom-built automatic potentiometric titration apparatus composed of a METROHM 655 DOSIMAT automatic buret, a FISHER ACCUMET pH meter with a CORNING calomel combination electrode, a custom-blown water jacketed titration cell, a BRINKMAN LAUDA K-2/R constant temperature bath and a COMMODORE 64 computer. […] Data analysis was performed on an IBM-AT computer using the least squares program, BETA (Harris, W. et al, supra), and the data analysis program, HANDNBAR (Harris, W. et al, supra). The titrants were standardized by phenophthalein titration as follows: KOH was calibrated against potassium hydrogen phthalate (a primary standard), and HCl solutions were calibrated against the KOH standard. […] All solutions were made from distilled, deionized water that was further purified on a MILLI-Q cartridge system, degassed, and then kept under an atmosphere of argon which had been scrubbed for CO2 and O2. Additions of EDTA and Mn(II) solutions were performed using calibrated GILMOT pipets.
The metal complex titration was performed by adding 152.2 mg (0.2383 mmoles) to 74.6 ml of a high pH aqueous solution.

Cc1ncc(COP(=O)(O)O)c(CN(CCN(CC(=O)[O-])Cc2c(COP(=O)(O)O)cnc(C)c2O)CC(=O)[O-])c1O.[Mn+2] [Mn(DPDP), sodium-calcium salt of a manganese chelate complex of N,N,-bis-(pyridoxal-5-phosphate)ethylenediamine-N,N'-diacetic acid or N,N'-bis(3-hydroxy-2-methyl-5-phosphonomethyl-4-pyridylmethyl)ethylenediamine-N,N'-diacetic acid]
T1 (Plasma) ([1]; 0.000039 molar): 1103 ms | T1 (Plasma) ([1]; 0.000078 molar): 995 ms | T1 (Plasma) ([1]; 0.000156 molar): 856 ms | T1 (Water) ([1]; 0.000156 molar): 1470 ms | T1 (Plasma) ([1]; 0.000312 molar): 624 ms | T1 (Water) ([1]; 0.000312 molar): 1083 ms | T1 (Plasma) ([1]; 0.000625 molar): 398 ms | T1 (Water) ([1]; 0.000625 molar): 639 ms | T1 (Plasma) ([1]; 0.00125 molar): 240 ms | T1 (Water) ([1]; 0.00125 molar): 332 ms | T1 (Plasma) ([1]; 0.0025 molar): 139 ms | T1 (Water) ([1]; 0.0025 molar): 175 ms | T2 (Plasma) ([1]; 0.0025 molar): 124 ms | T1 (Plasma) ([1]; 0.005 molar): 74 ms | T1 (Water) ([1]; 0.005 molar): 100 ms | T2 (Plasma) ([1]; 0.005 molar): 68 ms | T2 (Water) ([1]; 0.005 molar): 86 ms | T1 (Plasma) ([1]; 0.010 molar): 40 ms | T1 (Water) ([1]; 0.010 molar): 43 ms | T2 (Plasma) ([1]; 0.010 molar): 34 ms | T2 (Water) ([1]; 0.010 molar): 41 ms | uptake by the heart through the dose range studied (selected body organs; 0.05-0.20 mmol/kg, i.v.): continues to uptake | T1 (selected body organs; Blood, 0.01 mmol/kg i.v.): 844 ms | T1 (selected body organs; Blood, 0.05 mmol/kg i.v.): 613 ms | T1 (selected body organs; Blood, 0.10 mmol/kg i.v.): 506 ms | T1 (selected body organs; Blood, 0.20 mmol/kg i.v.): 411 ms | T1 (selected body organs; Brain, 0.01 mmol/kg i.v.): 554 ms | T2 (selected body organs; Brain, 0.01 mmol/kg i.v.): 76 ms | T1 (selected body organs; Brain, 0.05 mmol/kg i.v.): 496 ms | T2 (selected body organs; Brain, 0.05 mmol/kg i.v.): 82 ms | T1 (selected body organs; Brain, 0.10 mmol/kg i.v.): 590 ms | T2 (selected body organs; Brain, 0.10 mmol/kg i.v.): 90 ms | T1 (selected body organs; Brain, 0.20 mmol/kg i.v.): 352 ms | T2 (selected body organs; Brain, 0.20 mmol/kg i.v.): 66 ms | T1 (selected body organs; Fat, 0.05 mmol/kg i.v.): 200 ms | T2 (selected body organs; Fat, 0.05 mmol/kg i.v.): 139 ms | T1 (selected body organs; Fat, 0.10 mmol/kg i.v.): 183 ms | T2 (selected body organs; Fat, 0.10 mmol/kg i.v.): 115 ms | T1 (selected body organs; Fat, 0.20 mmol/kg i.v.): 192 ms | T1 (selected body organs; Heart, 0.05 mmol/kg i.v.): 353 ms | T2 (selected body organs; Heart, 0.05 mmol/kg i.v.): 54 ms | T1 (selected body organs; Heart, 0.10 mmol/kg i.v.): 300 ms | T2 (selected body organs; Heart, 0.10 mmol/kg i.v.): 51 ms | T1 (selected body organs; Heart, 0.20 mmol/kg i.v.): 205 ms | T2 (selected body organs; Heart, 0.20 mmol/kg i.v.): 47 ms | T1 (selected body organs; Large Int., 0.01 mmol/kg i.v.): 283 ms | T2 (selected body organs; Large Int., 0.01 mmol/kg i.v.): 64 ms | T1 (selected body organs; Large Int., 0.05 mmol/kg i.v.): 365 ms | T2 (selected body organs; Large Int., 0.05 mmol/kg i.v.): 83 ms | T1 (selected body organs; Large Int., 0.10 mmol/kg i.v.): 290 ms | T2 (selected body organs; Large Int., 0.10 mmol/kg i.v.): 57 ms | T1 (selected body organs; Large Int., 0.20 mmol/kg i.v.): 256 ms | T2 (selected body organs; Large Int., 0.20 mmol/kg i.v.): 74 ms | T1 (selected body organs; Liver, 0.01 mmol/kg i.v.): 176 ms | T2 (selected body organs; Liver, 0.01 mmol/kg i.v.): 39 ms | T1 (selected body organs; Liver, 0.05 mmol/kg i.v.): 76 ms | T2 (selected body organs; Liver, 0.05 mmol/kg i.v.): 31 ms | T1 (selected body organs; Liver, 0.10 mmol/kg i.v.): 65 ms | T2 (selected body organs; Liver, 0.10 mmol/kg i.v.): 23 ms | T1 (selected body organs; Liver, 0.20 mmol/kg i.v.): 68 ms | T2 (selected body organs; Liver, 0.20 mmol/kg i.v.): 25 ms | T1 (selected body organs; Lung, 0.05 mmol/kg i.v.): 575 ms | T2 (selected body organs; Lung, 0.05 mmol/kg i.v.): 113 ms | T1 (selected body organs; Lung, 0.10 mmol/kg i.v.): 435 ms | T2 (selected body organs; Lung, 0.10 mmol/kg i.v.): 61 ms | T1 (selected body organs; Lung, 0.20 mmol/kg i.v.): 376 ms | T2 (selected body organs; Lung, 0.20 mmol/kg i.v.): 63 ms | T1 (selected body organs; Renal Cort., 0.01 mmol/kg i.v.): 298 ms | T2 (selected body organs; Renal Cort., 0.01 mmol/kg i.v.): 65 ms | T1 (selected body organs; Renal Cort., 0.05 mmol/kg i.v.): 210 ms | T2 (selected body organs; Renal Cort., 0.05 mmol/kg i.v.): 57 ms | T1 (selected body organs; Renal Cort., 0.10 mmol/kg i.v.): 188 ms | T2 (selected body organs; Renal Cort., 0.10 mmol/kg i.v.): 55 ms | T1 (selected body organs; Renal Cort., 0.20 mmol/kg i.v.): 143 ms | T2 (selected body organs; Renal Cort., 0.20 mmol/kg i.v.): 53 ms | T1 (selected body organs; Renal Med., 0.01 mmol/kg i.v.): 502 ms | T2 (selected body organs; Renal Med., 0.01 mmol/kg i.v.): 99 ms | T1 (selected body organs; Renal Med., 0.05 mmol/kg i.v.): 223 ms | T2 (selected body organs; Renal Med., 0.05 mmol/kg i.v.): 57 ms | T1 (selected body organs; Renal Med., 0.10 mmol/kg i.v.): 209 ms | T2 (selected body organs; Renal Med., 0.10 mmol/kg i.v.): 48 ms | T1 (selected body organs; Renal Med., 0.20 mmol/kg i.v.): 127 ms | T2 (selected body organs; Renal Med., 0.20 mmol/kg i.v.): 60 ms | T1 (selected body organs; Skel. Musc., 0.05 mmol/kg i.v.): 494 ms | T2 (selected body organs; Skel. Musc., 0.05 mmol/kg i.v.): 47 ms | T1 (selected body organs; Skel. Musc., 0.10 mmol/kg i.v.): 425 ms | T2 (selected body organs; Skel. Musc., 0.10 mmol/kg i.v.): 31 ms | T1 (selected body organs; Skel. Musc., 0.20 mmol/kg i.v.): 232 ms | T2 (selected body organs; Skel. Musc., 0.20 mmol/kg i.v.): 31 ms | T1 (selected body organs; Small Int., 0.01 mmol/kg i.v.): 324 ms | T2 (selected body organs; Small Int., 0.01 mmol/kg i.v.): 72 ms | T1 (selected body organs; Small Int., 0.05 mmol/kg i.v.): 237 ms | T2 (selected body organs; Small Int., 0.05 mmol/kg i.v.): 52 ms | T1 (selected body organs; Small Int., 0.10 mmol/kg i.v.): 218 ms | T2 (selected body organs; Small Int., 0.10 mmol/kg i.v.): 46 ms | T1 (selected body organs; Small Int., 0.20 mmol/kg i.v.): 131 ms | T2 (selected body organs; Small Int., 0.20 mmol/kg i.v.): 46 ms | T1 (selected body organs; Stom., 0.05 mmol/kg i.v.): 245 ms | T2 (selected body organs; Stom., 0.05 mmol/kg i.v.): 41 ms | T1 (selected body organs; Stom., 0.10 mmol/kg i.v.): 242 ms | T2 (selected body organs; Stom., 0.10 mmol/kg i.v.): 52 ms | T1 (selected body organs; Stom., 0.20 mmol/kg i.v.): 271 ms | T2 (selected body organs; Stom., 0.20 mmol/kg i.v.): 53 ms | T1 (selected body organs; Urine, 0.01 mmol/kg i.v.): 821 ms | T1 (selected body organs; Urine, 0.05 mmol/kg i.v.): 150 ms | T2 (selected body organs; Urine, 0.05 mmol/kg i.v.): 136 ms | T1 (selected body organs; Urine, 0.10 mmol/kg i.v.): 90 ms | T2 (selected body organs; Urine, 0.10 mmol/kg i.v.): 75 ms | dose saturating the liver and kidneys (selected body organs; rabbit, i.v.): 0.10 mmol/kg | uptake by the brain (selected body organs; rabbit, i.v.): observed at higher doses | uptake in the heart, liver and kidneys (selected body organs; rabbit, i.v.): rapid uptake | log Kf (formation constant) ([2]; Mn(II) chelate, potentiometric, pH 11.1 to 2.0): 14.8 | binding of Mn(II) ion to the chelating agent at physiological pH ([2]; physiological pH, Mn stabilized at the +2 valence): quantitatively bound | pH below which the complex begins to demetallate ([2]; titration data): below 4.5
